The values that follow come from patent US20230027295A1, “FXIA INHIBITORS AND PREPARATION METHOD THEREFOR AND PHARMACEUTICAL USE THEREOF” (Shenzhen Salubris Pharmaceuticals Co., Ltd., priority 2019, published 2023).

A value given as a limit tells only on which side of the number the result lay.

As a reminder, the IC50 is the concentration that inhibits the measured activity by half. Read a low IC50 as greater potency. In general, AUC refers to concentration integrated over time. High values mean high exposure, low ones low exposure. The term Cmax denotes the peak of the concentration-time curve. As a reminder, the Tmax is the time from dosing to the highest level. The clearance is a measure of how efficiently the substance is removed, as volume per time. Read a high clearance as efficient removal. As a reminder, the half-life is the time needed for the level to fall by half in the phase considered. The low end stands for rapid decline, the high end for slow decline.

The target of one data set is T1, hERG current (Homo sapiens, UniProt Q12809).
T1 construct: host or cells: HEK293
T1 sequence (Q12809 whole entry): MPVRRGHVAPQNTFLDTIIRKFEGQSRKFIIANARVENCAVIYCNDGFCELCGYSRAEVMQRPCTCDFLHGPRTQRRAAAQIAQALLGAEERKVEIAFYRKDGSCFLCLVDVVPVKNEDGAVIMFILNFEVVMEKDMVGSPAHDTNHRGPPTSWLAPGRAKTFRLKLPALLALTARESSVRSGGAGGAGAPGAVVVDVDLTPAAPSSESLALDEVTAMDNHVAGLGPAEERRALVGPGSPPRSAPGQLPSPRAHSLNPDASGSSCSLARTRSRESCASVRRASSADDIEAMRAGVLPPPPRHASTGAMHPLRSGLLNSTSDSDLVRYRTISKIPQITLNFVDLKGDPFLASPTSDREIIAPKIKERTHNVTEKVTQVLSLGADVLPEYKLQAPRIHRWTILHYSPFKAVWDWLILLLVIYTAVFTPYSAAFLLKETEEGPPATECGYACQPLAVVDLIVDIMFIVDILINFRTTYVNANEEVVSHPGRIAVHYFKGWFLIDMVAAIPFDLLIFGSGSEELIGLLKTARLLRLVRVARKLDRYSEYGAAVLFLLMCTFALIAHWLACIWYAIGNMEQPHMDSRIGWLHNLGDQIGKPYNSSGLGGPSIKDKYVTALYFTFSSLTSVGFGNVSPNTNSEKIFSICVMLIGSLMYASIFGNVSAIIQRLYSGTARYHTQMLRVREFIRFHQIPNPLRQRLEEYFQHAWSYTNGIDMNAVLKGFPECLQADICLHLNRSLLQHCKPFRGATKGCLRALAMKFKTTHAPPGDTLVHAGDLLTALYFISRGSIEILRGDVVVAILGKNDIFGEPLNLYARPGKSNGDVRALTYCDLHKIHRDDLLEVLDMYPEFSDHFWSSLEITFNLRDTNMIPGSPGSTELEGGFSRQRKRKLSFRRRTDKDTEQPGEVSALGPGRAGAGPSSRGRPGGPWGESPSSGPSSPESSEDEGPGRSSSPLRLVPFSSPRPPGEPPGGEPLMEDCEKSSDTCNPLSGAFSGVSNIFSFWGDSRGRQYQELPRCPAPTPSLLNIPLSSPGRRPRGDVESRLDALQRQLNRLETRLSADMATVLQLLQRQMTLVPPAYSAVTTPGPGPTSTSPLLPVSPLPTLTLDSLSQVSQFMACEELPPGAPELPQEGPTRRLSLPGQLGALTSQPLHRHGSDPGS
In words: hERG current in HEK293-hERG stably transfected cells. The class given is cell-based. The following applies: HEK293-hERG cells. As to the method:
Example 56: Investigation on hERG of the Compound of the Present Invention
HEK293-hERG stably transfected cell line (invitrogen). DMEM medium (Gibco), HEPES (invitrogen), Blasticidin (invitrogen)
HEK293-hERG stably transfected cells were used for experiments when they were cultured to a degree of polymerization of 40%-80%. First, a blank solvent was applied to the cells to establish a baseline. […] In the presence of test compounds, hERG currents were recorded for approximately 5 minutes to reach a steady state, and then 5 sweep frequencies were captured. To ensure good performance of cultured cells and manipulations, the same batch of cells was also tested using the positive control dofetilide.
Peak current inhibition=(1−Peak tail current compound/Peak tail current vehicle)*100
(In general: The hERG channel carries a current that helps repolarise heart muscle cells.)

A further data set addresses T2, Human Factor Xa (Homo sapiens, UniProt P00742).
T2 construct: hFXa: Human Factor Xa: 71nkat; purchased 71nkat
Put plainly: Selectivity to coagulation factors: hFXa (substrate S-2222). The class given is biochemical. As to the method:
Example 52: Investigation of the Selectivity of the Compounds of the Present Invention to Coagulation Factors
Enzyme: hFXa: Human Factor Xa: 71nkat. hFIIa: HT5146L. hFVIIa: Human Factor VIIa: hFVIIa 4591L. kallikrein: LOT180223.
hFXa buffer: 100 mM NaCl, 5 mM CaCl2, 33% ethylene glycol, 50 mM Tris (pH 7.5).
10 mM test compound dissolved in 100% DMSO was diluted with 100% DMSO to 1000, 200, 40, 8, 1.6 μM. 98 μL of enzyme solution was added to each well of a 96-well plate, while 98 μL of buffer was added to the blank wells. 2 μL of compounds of different concentrations were added, while the blank and control wells were added with DMSO instead. They were mixed with a shaker, and incubated at 37° C. for 20 min.
The concentrations of hFXa and S-2222™ were FXa (1:28) and 800 μmol/L, respectively. The concentrations of hFIIa and S-2238™ were hFIIa (0.06 U/ml) and 500 μmol/L, respectively. The concentrations of hFVIIa and S-2288™ were hFVIIa (80 nM) and 1600 μmol/L, respectively. The concentrations of kallikrein and substrate were kallikrein (20 nM) and 1600 μmol/L, respectively.
Finally, 100 μL substrate was added to each well, and its absorbance was measured at 405 nm.

The nature of data set [1]: Beagle dog pharmacokinetics. It counts as in vivo. The following applies: for AUC / Cmax / Tmax / clearance / half-life / Vd: male, plasma; for Vd: read-out: Vss. From the text:
Example 53: Investigation of the Pharmacokinetic Characteristics of the Compounds of the Present Invention
SD rats: male, 180-250 g, purchased from Guangdong Medical Laboratory Animal Center. Cynomolgus monkey: male, 4-6 kg, purchased from Guangzhou Chunsheng Biological Research Institute Co., Ltd. Beagle dog: male, 8-12 kg, developed in Kanglong Chemical (Ningbo) New Drug Technology Co., Ltd.
Reagents: DMSO (dimethyl sulfoxide), PEG-400 (polyethylene glycol 400), normal brine, heparin, acetonitrile, formic acid, and propranolol (internal standard) are commercially available.
Instrumentation: Thermo Fisher Scientific LC-MS (U300 UPLC, TSQ […] ULTRA triple quadrupole mass spectrometer).
The compound was weighed and dissolved in DMSO-PEG-400-physiological brine (5:60:35, v/v/v) system. After the rats/monkeys were administered intravenously or by gavage, 200 μL of venous blood was collected at 5 min (not collected when administered by gavage), 15 min, 30 min, 1 h, 2 h, 4 h, 6 h, 8 h, and 24 h in heparinized EP tubes, centrifuged at 12000 rpm for 2 min, and the plasma was frozen at −80° C. for testing. A certain amount of the test substance was precisely weighed and dissolved in DMSO to 1 mg/mL, which was used as a stock solution. An appropriate amount of compound stock solution was accurately pipetted and diluted with acetonitrile to prepare a standard series of solutions. 20 μL of each of the above standard series solutions were accurately pipetted, added with 180 μL of blank plasma, vortexed and mixed to prepare plasma samples equivalent to plasma concentrations of 1, 3, 10, 30, 100, 300, 1000, 3000 and 5000 ng/mL. Two-sample analysis was performed for each concentration to establish a standard curve. 20 μL of plasma was taken out, added with 200 μL of internal standard propranolol (5 ng/mL) in acetonitrile, vortexed and mixed. It was centrifuged at 4000 rpm for 5 min, and the supernatant was collected for LC-MS analysis. LC-MS detection conditions were as follows:
Chromatographic column: Thermo Scientific […] GOLD C-18 UPLC column, 100*2.1 mm, 1.9 μm.
Mobile phase: water (0.1% formic acid)-acetonitrile for gradient elution according to the table below.
After blood drug concentrations being detected by LC-MS, WinNonlin 6.1 software was used to calculate pharmacokinetic parameters by non-compartmental model method.

T2 sequence (P00742 235-488 limits assumed): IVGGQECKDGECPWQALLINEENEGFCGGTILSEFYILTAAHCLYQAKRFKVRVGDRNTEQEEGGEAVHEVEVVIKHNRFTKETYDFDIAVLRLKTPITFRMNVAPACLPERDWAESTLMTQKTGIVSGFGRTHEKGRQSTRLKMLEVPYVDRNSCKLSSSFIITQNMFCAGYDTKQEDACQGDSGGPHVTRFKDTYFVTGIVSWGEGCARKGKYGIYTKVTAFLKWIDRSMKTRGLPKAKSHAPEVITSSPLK
T2 sequence (P00742 41-179 partner limits assumed): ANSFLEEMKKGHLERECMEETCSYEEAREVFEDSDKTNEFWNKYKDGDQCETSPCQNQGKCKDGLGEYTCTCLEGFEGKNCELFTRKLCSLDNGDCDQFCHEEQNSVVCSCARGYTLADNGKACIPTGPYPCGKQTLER

For `COc1nn([C@@H](Cc2ccccc2)C(=O)Nc2ccc(C(=O)O)cc2)c(=O)cc1-c1cc(Cl)ccc1C(C)=O` [Example 19, (S)-4-(2-(4-(2-acetyl-5-chlorophenyl)-3-methoxy-6-oxopyridazin-1(6H)-yl)-3-phenylpropanamido)benzoic acid], the concentration for half-maximal inhibition (IC50) at hERG current is above 10 µM. Besides, the IC50 against Human Factor Xa is above 100 µM. This compound also had a F in data set [1] (ig) of 65.5%. In data set [1] (iv), the AUC was found to be 1410 ng·h/mL, the maximum concentration (Cmax) amounted to 2580 ng/mL, the time of peak concentration (Tmax) came out at 0.083 h and the clearance stood at 11.8 mL/min/kg. Further, in data set [1] (iv), the half-life is 4.2 h and the Vd was 0.8 L/kg. In addition, in data set [1] (po, ig), the AUC was determined as 9230 ng·h/mL, the Cmax was found to be 2320 ng/mL, the Tmax was 1.25 h and the half-life was 3.6 h.

Consider `CCC(=O)c1ccc(Cl)cc1-c1cc(=O)n([C@@H](Cc2ccccc2)C(=O)Nc2ccc(C(=O)O)cc2)nc1OC` [Example 32], for which, at hERG current, the IC50 is above 10 µM. This compound gave an IC50 at Human Factor Xa above 100 µM. The compound also had a F in data set [1] (ig) of 49.6%. In data set [1] (iv), the area under the curve (AUC) came to 756 ng·h/mL, the concentration peaked (Cmax) at 2190 ng/mL, the Tmax stood at 0.083 h and the clearance amounted to 22.7 mL/min/kg. Besides, in data set [1] (iv), the half-life is 7.77 h and the Vd stood at 2.64 L/kg. Further, in data set [1] (po, ig), the AUC is 3770 ng·h/mL, the Cmax is 1600 ng/mL, the time to peak (Tmax) was found to be 0.25 h and the half-life was 4.51 h.
